Experimental data: publication PMC6632053, “Incorporation of Putative Helix-Breaking Amino Acids in the Design of Novel Stapled Peptides: Exploring Biophysical and Cellular Permeability Properties” (Molecules, 2019)
“And” between values parts separate entries of the source, which are not always exact repeats. Equal entries are not always repeated. Where two headings read alike, the source gives them in different places. Bridge positions count the residues as written; N and C are the ends. Square brackets hold non-standard residues; d marks the D form. Peptide text beside a SMILES is read from it. R8 = C=CCCCCCC[C@@](C)(N)C(=O)O; Cba = N[C@@H](CC1CCC1)C(=O)O; S5 = C=CCCC[C@](C)(N)C(=O)O

Columns and labels:
[1] = Whole cell homogenate stability; format: in vitro ADME; conditions: 1 μM peptide, 37 °C, up to 22 h
Protocol: Peptides at a concentration of 1 μM were incubated at 37 °C with HCT116 whole cell homogenates prepared from 1 million lysed cells/mL. The reaction was stopped at 0, 1, 2, 4, and 22 h with an organic solvent followed by centrifugation. The resulting supernatant was injected into LC/MS for detection of the tested peptide. The remaining percentage of each compound was normalized to the 0 h amount and reported. As a positive control, we used the ONEG peptide with the sequence […] [28].

[2] = system: p53 responsive β-lactamase reporter in HCT116 cells; assay: p53 beta-lactamase reporter gene cellular functional assay; format: cell-based; conditions: p53 reporter assay, HCT116, read-out: Cellular (µM), cellular activity (EC50)
How it was run: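 HCT116 cells stably carrying a p53-responsive β-lactamase reporter seeded 8000/well overnight, then switched to Opti-MEM with 0% or 10% FBS for compound treatment at 0.5% DMSO final. β-Lactamase activity measured with ToxBLAzer Dual Screen on a multiplate reader.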

human Mdm2 1–125 = target: T1, human Mdm2 1–125 (Homo sapiens, UniProt Q00987); assay: Mdm2 binding assay (competitive fluorescence anisotropy/polarization); conditions: competitive fluorescence polarization, read-out: Mdm2 (nM), Mdm2 binding (Kd)
T1 construct: GST (N); His6 (internal); TEV cleavage site ENLYFQG (internal); made in house; host or cells: Escherichia coli BL21 (DE3) Rosetta T1R
T1 sequence (Q00987 with tags, fused parts or gaps): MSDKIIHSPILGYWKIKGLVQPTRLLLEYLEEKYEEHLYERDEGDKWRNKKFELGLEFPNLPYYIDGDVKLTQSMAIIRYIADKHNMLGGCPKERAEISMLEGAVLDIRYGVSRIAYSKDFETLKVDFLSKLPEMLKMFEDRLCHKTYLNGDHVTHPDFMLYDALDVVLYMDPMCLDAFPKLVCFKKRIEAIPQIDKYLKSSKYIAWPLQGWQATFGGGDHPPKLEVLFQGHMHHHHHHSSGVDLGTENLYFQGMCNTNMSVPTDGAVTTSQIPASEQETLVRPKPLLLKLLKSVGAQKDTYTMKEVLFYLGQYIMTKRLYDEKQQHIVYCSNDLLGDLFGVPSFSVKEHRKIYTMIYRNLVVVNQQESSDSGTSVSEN
Protocol: The TEV (tobacco etch virus) cleavage site was changed from ENLYFQS to ENLYFQG to give a fusion protein with the following sequence:
Titrations were carried out with the concentration of Mdm2 held constant at 250 nM and the labeled peptide at 50 nM. The competing molecules were then titrated against the complex of the FAM-labeled peptide and protein. Apparent Kd values were determined by fitting the experimental data to the equations shown below:(2) r=r0+(rb−r0)×2(d^2−3e)cos(θ/3)−9/3Kd1+2(d^2−3e)cos(θ/3)−dd=Kd1+Kd2+[L]st+[L]t−[P]te=([L]t−[P]t)Kd1+([L]st−[P]t)Kd2+Kd1Kd2f=−Kd1Kd2[P]tθ=arcos[−2d^3+9de−27f/2(d^2−3e)^3] where [L]st and [L]t denote labeled ligand and total unlabeled ligand input concentrations, respectively. Kd2 is the dissociation constant of the interaction between the unlabeled ligand and the protein. In all competition experiments, it was assumed that [P]t > [L]st, otherwise considerable amounts of free labeled ligand would always be present and would interfere with measurements. Kd1 is the apparent Kd for the labeled peptide used and was experimentally determined as described in the previous paragraph. The FAM-labeled peptide was dissolved in dimethyl sulfoxide (DMSO) at 1 mM and diluted into the experimental buffer. Readings were carried out with an Envision Multilabel Reader (PerkinElmer). Experiments were carried out in PBS (2.7 mM KCl, 137mM NaCl, 10 mM Na2HPO4, and 2 mM KH2PO4 (pH 7.4)) and 0.1% Tween 20 buffer. All titrations were carried out in triplicate. Curve-fitting was carried out using Prism 4.0 (GraphPad). […] Negative control titrations of the ligands under investigation were also carried out with the fluorescently labeled peptide (in the absence of Mdm2) to ensure no interactions were occurring between the ligands and the FAM-labeled peptide.

[3] = Circular dichroism (CD) α-helicity; format: physicochemical; conditions: for Helicity (%): CD of free peptide, 25 °C, 1 mM Hepes pH 7.4, 5% methanol
How it was run: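 Peptide dried from methanol, reconstituted to 1 mM in 1 mM Hepes pH 7.4 with 5% methanol; concentration by A280. CD spectra 300–190 nm, 0.2 cm path, 25 °C, duplicates; converted to mean residue ellipticity and deconvoluted for secondary structure.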

EC50 ([2]; Table 1) | Kd (human Mdm2 1–125; Table 1) | Helicity (%) ([3]; Table 1) | EC50 ([2]; Table 2) | Kd (human Mdm2 1–125; Table 2) | Helicity (%) ([3]; Table 2) | α-helicity by CD ([3]; listed as Pro^9) | α-helicity by CD [3] | Compound | stability in whole cell homogenate [1]
0.5 µM | 17.6 nM | 53.3% |  |  |  |  |  | CC(=O)N[C@@H](C)C(=O)N[C@H](C(=O)N[C@@H](Cc1ccccc1)C(=O)N[C@]1(C)CCCCCCC=CCCC[C@@](C)(C(=O)N[C@@H](CO)C(=O)N[C@@H](C)C(=O)N[C@@H](C)C(N)=O)NC(=O)[C@H](CC2CCC2)NC(=O)[C@H](CC(C)C)NC(=O)[C@H](CCC(N)=O)NC(=O)[C@H](Cc2c[nH]c3ccccc23)NC(=O)[C@H](Cc2ccc(O)cc2)NC(=O)[C@H](CCC(=O)O)NC1=O)[C@@H](C)O [Peptide L1A] (Ac-ATF[R8]EYWQL[Cba][S5]SAA-NH2; staple 4-11) | 
1.1 µM | 30 nM | 39.0% |  |  |  |  |  | CC(=O)N[C@@H](CC(C)C)C(=O)N[C@H](C(=O)N[C@@H](Cc1ccccc1)C(=O)N[C@]1(C)CCCCCCC=CCCC[C@@](C)(C(=O)N[C@@H](CO)C(=O)N[C@@H](C)C(=O)N[C@@H](C)C(N)=O)NC(=O)[C@H](CC2CCC2)NC(=O)[C@@H](CC(C)C)NC(=O)[C@H](CCC(N)=O)NC(=O)[C@H](Cc2c[nH]c3ccccc23)NC(=O)[C@H](Cc2ccc(O)cc2)NC(=O)[C@H](CCC(=O)O)NC1=O)[C@@H](C)O [L9(D-Leu)] | 
0.16 µM | 12 nM | 48.7% |  |  |  |  |  | CC(=O)N[C@@H](CC(C)C)C(=O)N[C@H](C(=O)N[C@@H](Cc1ccccc1)C(=O)N[C@]1(C)CCCCCCC=CCCC[C@@](C)(C(=O)N[C@@H](CO)C(=O)N[C@@H](C)C(=O)N[C@@H](C)C(N)=O)NC(=O)[C@H](CC2CCC2)NC(=O)[C@H](C)NC(=O)[C@H](CCC(N)=O)NC(=O)[C@H](Cc2c[nH]c3ccccc23)NC(=O)[C@H](Cc2ccc(O)cc2)NC(=O)[C@H](CCC(=O)O)NC1=O)[C@@H](C)O [Peptide L9A] (Ac-LTF[R8]EYWQA[Cba][S5]SAA-NH2; staple 4-11) | 

The remaining lines, values behind:

Compound | EC50 ([2]; Table 1) | Kd (human Mdm2 1–125; Table 1) | Helicity (%) ([3]; Table 1) | EC50 ([2]; Table 2) | Kd (human Mdm2 1–125; Table 2) | Helicity (%) ([3]; Table 2) | α-helicity by CD ([3]; listed as Pro^9) | α-helicity by CD [3] | stability in whole cell homogenate [1]
CC(=O)N[C@@H](CC(C)C)C(=O)N[C@H](C(=O)N[C@@H](Cc1ccccc1)C(=O)NC(C)(C)C(=O)N[C@@H](CCC(=O)O)C(=O)N[C@@H](Cc1ccc(O)cc1)C(=O)N[C@@H](Cc1c[nH]c2ccccc12)C(=O)N[C@@H](CCC(N)=O)C(=O)N[C@@H](CC(C)C)C(=O)N[C@@H](CC1CCC1)C(=O)NC(C)(C)C(=O)N[C@@H](CO)C(=O)N[C@@H](C)C(=O)N[C@@H](C)C(N)=O)[C@@H](C)O [Linear Parent (MP-189), Ac–Leu–Thr–Phe–Aib–Glu–Tyr–Trp–Gln–Leu–Cba–Aib–Ser–Ala–Ala–NH2] | 33.5 µM | 43.1 nM | 35.3% |  |  |  |  |  | moderate stabilities
CC(=O)N[C@@H](CC(C)C)C(=O)N[C@H](C(=O)N[C@@H](Cc1ccccc1)C(=O)NC(C)(C)C(=O)N[C@H](CCC(=O)O)C(=O)N[C@@H](Cc1ccc(O)cc1)C(=O)N[C@@H](Cc1c[nH]c2ccccc12)C(=O)N[C@@H](CCC(N)=O)C(=O)N[C@@H](CC(C)C)C(=O)N[C@@H](CC1CCC1)C(=O)NC(C)(C)C(=O)N[C@@H](CO)C(=O)N[C@@H](C)C(=O)N[C@@H](C)C(N)=O)[C@@H](C)O [Linear E5(D-Glu)] | > 50 µM | 135 nM | 21.4% |  |  |  |  |  | decreased stability
CC(=O)N[C@@H](CC(C)C)C(=O)N[C@H](C(=O)N[C@@H](C)C(=O)N[C@]1(C)CCCCCCC=CCCC[C@@](C)(C(=O)N[C@@H](CO)C(=O)N[C@@H](C)C(=O)N[C@@H](C)C(N)=O)NC(=O)[C@H](CC2CCC2)NC(=O)[C@H](CC(C)C)NC(=O)[C@H](CCC(N)=O)NC(=O)[C@H](Cc2c[nH]c3ccccc23)NC(=O)[C@H](Cc2ccc(O)cc2)NC(=O)[C@H](CCC(=O)O)NC1=O)[C@@H](C)O [Peptide F3A] (Ac-LTA[R8]EYWQL[Cba][S5]SAA-NH2; staple 4-11) | 37 µM | 3600 nM | 48.4% |  |  |  |  |  | 
CC(=O)N[C@@H](CCCCN=[N+]=[N-])C(=O)NCCC(=O)NCC(=O)N[C@H](C(=O)N[C@@H](Cc1ccccc1)C(=O)N[C@]1(C)CCCCCCC=CCCC[C@@](C)(C(=O)N[C@@H](CO)C(=O)N[C@@H](C)C(=O)N[C@@H](C)C(N)=O)NC(=O)[C@H](CC2CCC2)NC(=O)[C@H](CCC(N)=O)NC(=O)[C@H](C)NC(=O)[C@H](Cc2c[nH]c3ccccc23)NC(=O)[C@H](Cc2ccc(O)cc2)NC(=O)[C@H](CCC(=O)O)NC1=O)[C@@H](C)O [Peptide L1G] |  |  |  | 1.6 µM | 22.1 nM | 44.6% |  |  | 
CC(=O)N[C@@H](CCCCN=[N+]=[N-])C(=O)NCCC(=O)N[C@@H](CC(C)C)C(=O)N[C@H](C(=O)N[C@@H](Cc1ccccc1)C(=O)N[C@]1(C)CCCCCCC=CCCC[C@@](C)(C(=O)N[C@@H](CO)C(=O)N[C@@H](C)C(=O)N[C@@H](C)C(N)=O)NC(=O)[C@H](CC2CCC2)NC(=O)[C@@H]2CCCN2C(=O)[C@H](C)NC(=O)[C@H](Cc2c[nH]c3ccccc23)NC(=O)[C@H](Cc2ccc(O)cc2)NC(=O)[C@H](CCC(=O)O)NC1=O)[C@@H](C)O [Peptide Q9P] |  |  |  | 3.1 µM | 77.1 nM | 27.4% | < 30% and 27.4% |  | 
CC(=O)N[C@H](CC(C)C)C(=O)N[C@H](C(=O)N[C@@H](Cc1ccccc1)C(=O)NC(C)(C)C(=O)N[C@@H](CCC(=O)O)C(=O)N[C@@H](Cc1ccc(O)cc1)C(=O)N[C@@H](Cc1c[nH]c2ccccc12)C(=O)N[C@@H](CCC(N)=O)C(=O)N[C@@H](CC(C)C)C(=O)N[C@@H](CC1CCC1)C(=O)NC(C)(C)C(=O)N[C@@H](CO)C(=O)N[C@@H](C)C(=O)N[C@@H](C)C(N)=O)[C@@H](C)O [Linear L1(D-Leu)] | > 50 µM | 277 nM | 37.2% |  |  |  |  |  | 
CC(=O)N[C@@H](CCCCN=[N+]=[N-])C(=O)NCCC(=O)N[C@@H](CC(C)C)C(=O)N[C@H](C(=O)N[C@@H](Cc1ccccc1)C(=O)N[C@]1(C)CCCCCCC=CCCC[C@@](C)(C(=O)N[C@@H](CO)C(=O)N[C@@H](C)C(=O)N[C@@H](C)C(N)=O)NC(=O)[C@H](CC2CCC2)NC(=O)[C@H](CCC(N)=O)N(C)C(=O)[C@H](C)NC(=O)[C@H](Cc2c[nH]c3ccccc23)NC(=O)[C@H](Cc2ccc(O)cc2)NC(=O)[C@H](CCC(=O)O)NC1=O)[C@@H](C)O [Q9(N-methyl L-Gln)] |  |  |  | > 50 µM | 211 nM | 20.2% |  | < 30% | 
CC(=O)N[C@@H](CCCCN=[N+]=[N-])C(=O)NCCC(=O)N[C@@H](CC(C)C)C(=O)N[C@H](C(=O)N[C@@H](Cc1ccccc1)C(=O)N[C@]1(C)CCCCCCC=CCCC[C@@](C)(C(=O)N[C@@H](CO)C(=O)N[C@@H](C)C(=O)N[C@@H](C)C(N)=O)NC(=O)[C@H](CC2CCC2)NC(=O)[C@H](CCC(N)=O)NC(=O)[C@H](C)N(C)C(=O)[C@H](Cc2c[nH]c3ccccc23)NC(=O)[C@H](Cc2ccc(O)cc2)NC(=O)[C@H](CCC(=O)O)NC1=O)[C@@H](C)O [A8(N-methyl L-Ala)] |  |  |  | > 50 µM | 671 nM | 16.9% |  | < 30% | 
